A short description of data set [1]: Clearance in dog at 1 mg/kg, iv. The data set is classed as ADME, organism-based, Canis lupus familiaris. Set-up: dose 1 mg/kg, route intravenous. The note with it: in vivo.
A short description of data set [2]: Bioavailability in dog at 10 mg/kg, po. The data set is classed as ADME, organism-based, Canis lupus familiaris. The conditions noted are these: in vivo.
Data set [3] can be described thus: Half life in iv dosed dog. Type of data set: ADME, organism-based, Canis lupus familiaris. The conditions noted are these: in vivo.
Data set [4] in a line: Cmax in po dosed dog. The data set is classed as ADME, organism-based, Canis lupus familiaris. The arrangement: route oral. The conditions noted are these: in vivo.
Data set [5] can be described thus: Metabolic stability in dog liver microsomes after 10 mins. Type of data set: ADME, Canis lupus familiaris, Microsome. The conditions noted are these: read-out: Stability.
Data set [6] is described as follows: Oral bioavailability in rat. Type of data set: ADME, organism-based. The conditions noted are these: in vivo.
The nature of data set [7]: Oral bioavailability in dog. The data set is classed as ADME, organism-based, Canis lupus familiaris. The note with it: in vivo.
Data set [8] is described as follows: Metabolic stability in rat liver microsomes after 10 mins. The data set is classed as ADME, Microsome. The note with it: read-out: Stability. In general terms: Liver microsomes are vesicles of endoplasmic reticulum, rich in cytochrome P450 enzymes.
Data set [9] can be described thus: Bioavailability in rat at 10 mg/kg, po. The conditions noted are these: in vivo. Type of data set: ADME, organism-based.
Data set [10] is described as follows: Volume of distribution at steady state in rat at 2 mg/kg, iv. Type of data set: ADME, organism-based. Set-up: dose 2 mg/kg, route intravenous. The note with it: in vivo, read-out: Vdss.
Data set [11] in a line: Metabolic stability in human liver microsomes after 10 mins. Type of data set: ADME, Microsome. The conditions noted are these: read-out: Stability.
Data set [12] is described as follows: Half life in dog at 1 mg/kg, iv. The note with it: in vivo. Type of data set: ADME, organism-based, Canis lupus familiaris. Set-up: dose 1 mg/kg, route intravenous.
Data set [13] can be described thus: Cmax in dog at 10 mg/kg, po. Type of data set: ADME, organism-based, Canis lupus familiaris. The arrangement: dose 10 mg/kg, route oral. The note with it: in vivo.
Data set [14] in a line: Clearance in rat at 2 mg/kg, iv. The note with it: in vivo. Set-up: dose 2 mg/kg, route intravenous. Type of data set: ADME, organism-based.
The nature of data set [15]: Half life in rat at 2 mg/kg, iv. The data set is classed as ADME, organism-based. Set-up: dose 2 mg/kg, route intravenous. The note with it: in vivo.
Data set [16] is described as follows: Cmax in rat at 10 mg/kg, po. The data set is classed as ADME, organism-based. Set-up: dose 10 mg/kg, route oral. The note with it: in vivo.
Data set [17] in a line: Volume of distribution at steady state in dog at 1 mg/kg, iv. The data set is classed as ADME, organism-based, Canis lupus familiaris. The arrangement: dose 1 mg/kg, route intravenous. The note with it: in vivo, read-out: Vdss.
The nature of data set [18]: Half life in dog at 10 mg/kg, po. Set-up: dose 10 mg/kg, route oral. The note with it: in vivo. The data set is classed as ADME, organism-based, Canis lupus familiaris.
Data set [19] in a line: Cmax in rat at 30 mg/kg, po. Type of data set: ADME, organism-based. The arrangement: dose 30 mg/kg, route oral. The note with it: in vivo.
Data set [20] can be described thus: Half life in rat at 3 mg/kg, iv. The conditions noted are these: in vivo. The arrangement: dose 3 mg/kg, route intravenous. Type of data set: ADME, organism-based.
The nature of data set [21]: Bioavailability in rat at 30 mg/kg, po. The data set is classed as ADME, organism-based. The conditions noted are these: in vivo.
A short description of data set [22]: Half life in rat at 30 mg/kg, po. The note with it: in vivo. Set-up: dose 30 mg/kg, route oral. The data set is classed as ADME, organism-based.
The nature of data set [23]: Clearance in rat at 3 mg/kg, iv. The conditions noted are these: in vivo. The arrangement: dose 3 mg/kg, route intravenous. Type of data set: ADME, organism-based.
A short description of data set [24]: Volume of distribution at steady state in rat at 3 mg/kg, iv. The note with it: in vivo, read-out: Vdss. Type of data set: ADME, organism-based. Set-up: dose 3 mg/kg, route intravenous.

With `Cc1nc(N)ccc1CNC(=O)Cc1c(C#N)ccc(NCC(F)(F)c2ccccn2)c1F`, in data set [1], the clearance – broadly, the rate of elimination divided by the concentration – was 34 mL/min/kg. The bioavailability (in general, the share of a dose that reaches the circulation, judged against a reference dose that is usually intravenous) in [2] stood at 26%. The half-life (commonly the time in which the quantity being followed falls by half) in data set [3] is 1.1 h. Besides, in [4], the maximum concentration (Cmax) (as a rule, the highest concentration seen after dosing) was 800 nM. The remaining at 10 min in [5] stood at 100%.

Turning to `Cc1cccc(S(=O)(=O)Nc2ccc(C)n(CC(=O)NCCONC(=N)N)c2=O)c1`, the bioavailability is 6% in [6] and 24% in data set [7].

Take `N#Cc1ccc(NCC(F)(F)c2ccccn2)c(F)c1CC(=O)NCCONC(=N)N`: the remaining at 10 min in [8] was above 95%; in data set [11], at least 86%; in data set [5], at least 86%. Besides, the clearance in [1] came to 13 mL/min/kg; in data set [14], 67 mL/min/kg. Moreover, the bioavailability in data set [9] amounted to 2%; in data set [2], 49%. Further, the Vd in [10] amounted to 6 L/kg; in [17] it was 2.9 L/kg. Further, the half-life was 2.9 h in data set [12], 1 h in data set [15] and 2.5 h in data set [18]. Also, the Cmax in data set [13] amounted to 3500 nM; in data set [16], 30 nM.

With `Cc1ccc(C(F)(F)CNc2ccc(C#N)c(CC(=O)NCCONC(=N)N)c2F)nc1`, the Cmax worked out at 250 nM in data set [19] and 2800 nM in [13]. For the same compound, in data set [8], the remaining at 10 min was above 95%. For the same compound, the clearance in [1] turned out to be 18 mL/min/kg; in data set [23], 30 mL/min/kg. Besides, the figures for the bioavailability in data set [2] and in [21] were 45% and 2%, respectively. Further, the half-life in data set [20] was 1.3 h; in data set [12], 3.6 h; in [22], 2.5 h; in data set [18], 2.5 h. In addition, the values for the Vd in [17] and in data set [24] were 3.6 L/kg and 2.3 L/kg, respectively.

The compound `Cc1cccc(C(F)(F)CNc2ccc(C#N)c(CC(=O)NCCONC(=N)N)c2F)n1` displayed a clearance in [1] of 15 mL/min/kg. This compound gave a bioavailability in data set [2] of 65%. In addition, the figures for the half-life in data set [12] and in data set [18] were 2.8 h and 3.2 h, respectively. The compound also displayed a Cmax in [13] of 3300 nM. For the same compound, the Vd in [17] worked out at 2.9 L/kg.

As for `CCCN(Cc1ccoc1)C(=O)c1cc(C)cc(OCC2(CON=C(N)N)CC2)c1`, the bioavailability in [6] stood at 24%. Moreover, in [3], the half-life was 4.4 h.

The values are drawn from ChEMBL document CHEMBL1145621, “Orally efficacious thrombin inhibitors with cyanofluorophenylacetamide as the P2 motif” (Bioorg Med Chem Lett, 2008).
